Measured values reported in PubChem BioAssay AID1918939 (Molecular Pharmacology Branch, DTP, NCI, 2023).
pIC50: −log10 of the molar value.

System: 653999-131-R-J2-PDC complex spheroid viability
Assay: Anticancer human tumor 653999-131-R-J2-PDC patient-derived lung adenocarcinoma cell line growth inhibition
Conditions: for pIC50: curve of first compound; for viability, T/C: stronger effect = lower value
Procedure, shortened: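 Drug combinations with the LSD1 inhibitor iadademstat tested on tumor cells co-cultured as spheroids with endothelial cells and mesenchymal stem cells. Concentrations descended in half-log increments from clinical Cmax or 10 microM.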

[1] = second compound 0.1 µM, first compound 0.00949 µM
[2] = second compound 0.1 µM, first compound 0.03 µM
[3] = second compound 0.1 µM, first compound 0.0949 µM
[4] = second compound 0.1 µM, first compound 0.3 µM
[5] = second compound 0.1 µM, first compound 0.949 µM
[6] = second compound 0.1 µM, first compound 3 µM
[7] = second compound 0.316 µM, first compound 0.00949 µM
[8] = second compound 0.316 µM, first compound 0.03 µM
[9] = second compound 0.316 µM, first compound 0.0949 µM
[10] = second compound 0.316 µM, first compound 0.3 µM
[11] = second compound 0.316 µM, first compound 0.949 µM
[12] = second compound 0.316 µM, first compound 3 µM
[13] = second compound 1 µM, first compound 0.00949 µM
[14] = second compound 1 µM, first compound 0.03 µM
[15] = second compound 1 µM, first compound 0.0949 µM
[16] = second compound 1 µM, first compound 0.3 µM
[17] = second compound 1 µM, first compound 0.949 µM
[18] = second compound 1 µM, first compound 3 µM
[19] = second compound 3.16 µM, first compound 0.00949 µM
[20] = second compound 3.16 µM, first compound 0.03 µM
[21] = second compound 3.16 µM, first compound 0.0949 µM
[22] = second compound 3.16 µM, first compound 0.3 µM
[23] = second compound 3.16 µM, first compound 0.949 µM
[24] = second compound 3.16 µM, first compound 3 µM
[25] = second compound 10 µM, first compound 0.00949 µM
[26] = second compound 10 µM, first compound 0.03 µM
[27] = second compound 10 µM, first compound 0.0949 µM
[28] = second compound 10 µM, first compound 0.3 µM
[29] = second compound 10 µM, first compound 0.949 µM
[30] = second compound 10 µM, first compound 3 µM
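Note: spheroids exposed to agents for seven days before readout.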

Structure (SMILES)	pIC50 (second compound 0.1 µM)	pIC50 (second compound 0.316 µM)	pIC50 (second compound 1 µM)	pIC50 (second compound 3.16 µM)	pIC50 (second compound 10 µM)	viability, T/C [1] [%]	viability, T/C [2] [%]	viability, T/C [3] [%]	viability, T/C [4] [%]	viability, T/C [5] [%]	viability, T/C [6] [%]	viability, T/C [7] [%]	viability, T/C [8] [%]	viability, T/C [9] [%]	viability, T/C [10] [%]	viability, T/C [11] [%]	viability, T/C [12] [%]	viability, T/C [13] [%]	viability, T/C [14] [%]	viability, T/C [15] [%]	also measured
CCN(c1cc(-c2ccc(CN3CCOCC3)cc2)cc(C(=O)NCc2c(C)cc(C)[nH]c2=O)c1C)C1CCOCC1 + NC1CCC(NC2CC2c2ccccc2)CC1	< 5.52	< 5.52	< 5.52	< 5.52	< 5.52	97.1	93	98.2	94.9	80.8	74.9	80.6	88.9	91.8	80.9	87.6	72.2	77.6	101	92.2	viability, T/C [16]: 76.3%; viability, T/C [17]: 70.2%; viability, T/C [18]: 78.8%; viability, T/C [19]: 96.1%; viability, T/C [20]: 94.5%; viability, T/C [21]: 108%; viability, T/C [22]: 84%; viability, T/C [23]: 76.6%; viability, T/C [24]: 83.9%; viability, T/C [25]: 87.7%; viability, T/C [26]: 84.9%; viability, T/C [27]: 85.5%; viability, T/C [28]: 76%; viability, T/C [29]: 70%; viability, T/C [30]: 82.4%
COc1cc(C2c3cc4c(cc3C(OC3OC5COC(C)OC5C(O)C3O)C3COC(=O)C23)OCO4)cc(OC)c1O (stereo not given) + NC1CCC(NC2CC2c2ccccc2)CC1	7.05	6.91	7.19	6.77	6.62	70.8	61.6	48.6	38.2	37.6	28.3	68.6	63.7	54.5	36.6	31.3	29.7	74.5	52.6	50.2	viability, T/C [16]: 35.7%; viability, T/C [17]: 37.5%; viability, T/C [18]: 26.8%; viability, T/C [19]: 71.5%; viability, T/C [20]: 66.6%; viability, T/C [21]: 55.9%; viability, T/C [22]: 44.9%; viability, T/C [23]: 31.3%; viability, T/C [24]: 30.3%; viability, T/C [25]: 68.3%; viability, T/C [26]: 60.6%; viability, T/C [27]: 57.7%; viability, T/C [28]: 49.9%; viability, T/C [29]: 37.3%; viability, T/C [30]: 31.3%
